Test results reported in patent publication US11708330B2, “Compounds, compositions, methods for treating diseases, and methods for preparing compounds” (UNIVERSITY OF LOUISVILLE RESEARCH FOUNDATION, INC., priority 2017, dated 2023).

What was measured:
[1] = molecular target: recombinant human PFKFB4 protein (Homo sapiens, UniProt Q16877); assay: ADP-Glo kinase assay of recombinant PFKFB4; assay type: biochemical; conditions: decrease in luminescence relative to DMSO (FIG. 1)
Experimental: The efficacy of the compound Formula (I) in inhibiting the activity of the PFKFB4 enzyme was tested by examination of the effect of Formula (I) on the kinase activity of recombinant PFKFB4 enzyme in the ADP-Glo assay.
The efficacy of Formula (I) in inhibition of the kinase activity of the PFKFB4 enzyme was examined by exposing recombinant human PFKFB4 protein to Formula (I) in the ADP-Glo kinase assay (Promega) which measures ADP formed through a kinase reaction. Briefly, recombinant protein, ATP, substrate and Formula (I) were incubated together for the kinase reaction followed by the addition of ADP-Glo reagent, used to terminate the kinase reaction. Lastly, a kinase detection reagent was added to convert the newly formed ADP to ATP which was measured by a luciferase reaction. Data are shown in FIG. 1 as the decrease in luminescence caused by Formula (I) relative to DMSO. Decrease in Cell Proliferation by Formula (I) (Also Referred to as FBR1-12): […]

human cancer cell lines = assay: Cell proliferation, viable cell counts by Trypan blue exclusion; assay type: cell-based; conditions: increasing concentrations; cell counts relative to DMSO, representative counts at 48 hours (FIG. 2); compared with SMPN
Experimental: The effect of increasing concentrations of Formula (I) on the proliferation of human cancer cells was examined in vitro. […] Data in FIG. 2 are shown as the decrease in cell counts relative to the DMSO (vehicle) control.
Method: Cells were plated in 24 well plates and exposed to increasing concentrations of Formula (I). DMSO was used as a vehicle. After 24, 48 and 72 hours of exposure, cells were detached, and viable cells were counted by Trypan blue exclusion (representative counts at 48 hours shown).

cancer cells [2] = assay: Intracellular fructose-2,6-bisphosphate (F26BP) in cells; assay type: cell-based; conditions: increasing concentrations; two independently run experiments (FIG. 3A, 3B)
Experimental: The ability of Formula (I) to inhibit the activity of the PFKFB4 enzyme in cells was measured by examining the effect of the inhibitor on the levels of the product of the PFKFB4 enzyme, fructose-2,6-bisphosphate (F26BP). […] Data in FIG. 3 are shown as the concentration of intracellular F26BP normalized to cellular protein concentration.
In order to measure F26BP, cells were exposed to increasing concentrations of Formula (I) and were harvested, washed with PBS, lysed in NaOH/Tris acetate by heating at 80° C. and lysates neutralized to pH 7.2. F26BP content was measured using a coupled enzyme reaction following the method of Van Schaftingen (VAN SCHAFTINGEN et al, “A kinetic study of pyrophosphate: fructose-6-phosphate phosphotransferase from potato tubers. Application to a microassay of fructose 2,6-bisphosphate” Eur J Biochem. (1982) Vol. 129, No. 1, pp. 191-195), which is herein incorporated by reference in its entirety. The F26BP concentration was normalized to total cellular protein measured by the bicinchoninic acid assay (BCA, Thermo Scientific).

cancer cells [3] = assay: Glycolysis in cells, 3H2O production from 5-[3H]glucose; assay type: cell-based; conditions: two independently run experiments (FIG. 4A, 4B)
Excerpt: The effect of Formula (I) on the glycolytic pathway was examined to determine the ability of this inhibitor to decrease glycolysis secondary to its effect on PFKFB4-driven F26BP production. PFKFB4 produces F26BP which activates a rate-limiting enzyme of the glycolytic pathway, […] (PFK-1). […] Data in FIG. 4A and FIG. 4B are shown as the production of ^3H2O by Formula (I) relative to DMSO and normalized to protein concentration.
Method: To examine glycolysis, cells growing in 6-well plates were incubated in 500 μl of complete medium containing 1 μCi of […] per well for 60 min in 5% CO2 at 37° C. The medium was then collected and centrifuged to pellet any suspended cells. […] The amounts of ^3H2O that had diffused into the surrounding H2O was measured on a Tri-Carb 2910 liquid scintillation analyzer (Perkin Elmer) and compared with ^3H2O and 5-[^3H]glucose standards. Protein concentration was determined using the BCA assay and counts were normalized to protein concentration (previously described in CHESNEY et al., “Fructose-2,6-bisphosphate synthesis by 6-phosphofructo-2-kinase/fructose-2,6-bisphosphatase 4 (PFKFB4) is required for the glycolytic response to hypoxia and tumor growth” Oncotarget (2014) Vol. 5, No. 16, pp. 6670-6686, which is herein incorporated by reference in its entirety).

cancer cells [4] = assay: Intracellular ATP, bioluminescence assay; assay type: cell-based; conditions: two independently run experiments (FIG. 5A, 5B)
Experimental: The effect of Formula (I) on the production of ATP was examined as a measure of its effect on energy production by the glycolytic pathway.
To measure ATP, cells were washed (while still adherent) with cold PBS, lysed with Passive Lysis Buffer (Molecular Probes, Invitrogen) added directly to the plates, and immediately harvested by scraping. The lysates were flash frozen (to −80° C.) and thawed (to 37° C.) once to accomplish complete lysis and then centrifuged to clear the lysates. Intracellular ATP levels were determined using a bioluminescence assay (Molecular Probes), utilizing luciferase and its substrate, D-luciferin and ATP values were calculated using an ATP standard curve. The ATP concentration was normalized to protein concentration that was estimated using the BCA assay.

cancer cells [5] = assay: Anchorage independent growth as colonies in soft agar; assay type: cell-based; conditions: increasing concentrations; compared with DMSO (FIG. 6)
Experimental: We examined the ability of Formula (I) to inhibit the anchorage independent growth of cancer cells in vitro as colonies in soft agar. […] Representative images are shown in FIG. 6A, and colonies formed were enumerated. The number of colonies formed in the presence of Formula (I) was compared with those formed in the presence of the vehicle, DMSO (FIG. 6B).
Cancer cells were plated in soft agar and the effects of increasing concentrations of Formula (I) on anchorage independent growth was examined Briefly, a feeder layer of 0.6% agarose (Agar Noble, Becton Dickinson) in RPMI with 10% fetal bovine serum was plated in 6 cm plates containing vehicle (DMSO) or increasing concentrations of Formula (I). 1×10^4 cells were re-suspended in 0.3% agarose in RPMI/10% serum containing DMSO or increasing concentrations of Formula (I) and plated on top of the feeder layer. Cells were allowed to grow at 37° C. in 5% CO2 and agarose-containing media with DMSO+/−Formula (I) was replenished every 5 days until colonies became visible. Colonies were stained with MTT [3-(4,5-dimethylthiazol-2-yl)-2,5-diphenyl tetrazolium bromide] and counted in four random 1 cm^2 areas per plate under 40× magnification and enumerated.

[6] = test system: Lewis lung carcinoma cells; assay: Tumor growth in vivo, syngeneic Lewis lung carcinoma model; parameters: species or system C57BL/6 mice; conditions: daily oral 40 mg/kg in DMSO, 9 days, established tumors ~150-200 mg (FIG. 8)
Excerpt: The efficacy of Formula (I) in decreasing the growth of tumors in vivo was examined Mice were implanted with Lewis lung carcinoma cells and after tumors were noted, dosed daily with DMSO±Formula (I) by gavage and tumor growth followed. […] Data shown as mean±SEM for each timepoint. C57BL/6 mice (Charles River) were implanted with 1×10^6 Lewis lung carcinoma cells subcutaneously and, after tumors developed, were followed by caliper measurements daily to quantify tumor mass using the formula: tumor mass=(length×width^2)/2. When tumors were ˜150-200 mg, mice were randomized to daily oral DMSO±Formula (I) (n=10/group) at 40 mg/kg in 50 μL DMSO and tumor growth followed×9 days. (* signifies statistical significance)

[7] = test system: subcutaneous Lewis lung carcinoma tumors; assay: Tumor glucose uptake in vivo by FDG-PET; parameters: species or system C57BL/6 mice; conditions: 40 mg/kg PO x1, PET 60 minutes after dose, versus vehicle (FIG. 9)
Experimental: The efficacy of Formula (I) to decrease tumor glucose uptake was examined by positron emission tomography (PET) following ^18F-fluoro-2-deoxy-glucose (FDG) injection. […] Method: FDG-PET was conducted on tumor-bearing mice to determine acute effects of Formula (I) on glucose uptake. C57BL/6 mice (Charles River) with subcutaneous Lewis lung carcinoma tumors were injected intraperitoneally with 100 μCi of ^18F-fluoro-2-deoxy-glucose under isoflurane anesthesia and subjected to a 15-minute static scan 45 minutes after tracer injection at baseline. Twenty-four hours later, the same animals were administered vehicle (DMSO) or Formula (I) (in DMSO, 40 mg/kg, PO×1), and, after 60 minutes, FDG uptake determined by PET scan. Tumor/cerebellum ROI (regions of interest) were quantified, representative sagittal cuts from mice are shown with arrows showing the tumors on the animals. (* signifies statistical significance).

recombinant human PFKFB4 protein, sequence (Q16877 whole entry): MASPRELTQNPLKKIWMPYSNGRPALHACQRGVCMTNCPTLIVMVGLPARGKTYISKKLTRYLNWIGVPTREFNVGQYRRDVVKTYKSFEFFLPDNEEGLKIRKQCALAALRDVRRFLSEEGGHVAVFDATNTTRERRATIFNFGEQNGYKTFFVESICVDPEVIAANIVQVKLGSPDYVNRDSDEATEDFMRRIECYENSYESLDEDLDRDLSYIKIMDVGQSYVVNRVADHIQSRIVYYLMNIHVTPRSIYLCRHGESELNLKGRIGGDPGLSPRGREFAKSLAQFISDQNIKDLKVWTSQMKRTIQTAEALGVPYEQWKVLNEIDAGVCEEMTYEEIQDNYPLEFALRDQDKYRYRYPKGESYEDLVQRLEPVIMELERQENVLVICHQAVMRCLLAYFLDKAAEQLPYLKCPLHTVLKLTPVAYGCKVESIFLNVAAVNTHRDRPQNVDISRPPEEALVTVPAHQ

Question: `COc1cccc2c(NCCCCCNC(=O)C(F)(F)F)ccnc12` [Formula (I), 2,2,2-trifluoro-N-(5-((8-methoxyquinolin-4-yl)amino)pentyl)acetamide] was tested. Which “kinase activity of the PFKFB4 enzyme” value [1] did it give?
Answer: Its value is “inhibited the kinase activity of the PFKFB4 enzyme”.

Question: What about the “proliferation of human cancer cell lines” value (human cancer cell lines) of the same compound?
Answer: Its value is “decreases the proliferation of human cancer cell lines in vitro with higher potency than SMPN”.

Question: And the “intracellular F26BP normalized to cellular protein concentration” value (cancer cells [2])?
Answer: Its value is “dose-dependent decrease in F26BP in cancer cells”.

Question: And the “glycolysis, production of 3H2O relative to DMSO normalized to protein concentration” value (cancer cells [3])?
Answer: The value was “dose-dependent decrease in glycolysis in cancer cells”.

Question: What about the “production of ATP normalized to protein concentration” value (cancer cells [4]) of the same compound?
Answer: The value was “dose-dependent decrease in the production of ATP by cancer cells”.

Question: What about the “anchorage independent growth, soft agar colonies” value (cancer cells [5]) of the same compound?
Answer: The value was “inhibited the growth of cancer cells as soft agar colonies”.

Question: What about the “tumor growth (tumor mass)” value [6] of the same compound?
Answer: Its value is “decreased established tumor growth in a syngeneic mouse tumor model”.

Question: What about the “tumor FDG uptake (tumor/cerebellum ROI)” value [7] of the same compound?
Answer: The value was “caused a decrease in tumor FDG uptake compared with vehicle”.
